Source: patent US20140271680A1, “METHODS AND PHARMACEUTICAL COMPOSITIONS FOR TREATMENT OF PULMONARY HYPERTENSION” (UNIVERSITE PARIS-EST CRETEIL VAL DE MARNE, priority 2011, published 2014)

What was measured:
[1] = system: CCR5 knock-in (KICCR5) mice; assay: hypoxic pulmonary hypertension in CCR5 knock-in mice (chronic hypoxia 9% O2); type: in vivo; conditions: Maraviroc 200 mg/kg/day
Source text: To assess the inhibitory effects of the CCR5 antagonist Maraviroc on development of pulmonary hypertension in mice, the inventors used CCR5 knock-in mice in which the murine CCR5 gene was replaced by the human CCR5 gene. CCR5 knock-in mice were used in these experiments because Maraviroc binds to the human CCR5 but not to the murine CCR5 protein.
Male mice (12 months old), were exposed to chronic hypoxia (9% O2) in a ventilated chamber (Biospherix, New York, N.Y.). Mice were anesthetized with ketamine (60 mg/Kg) and xylazine (10 mg/Kg) intraperitoneally. A 26-gauge needle connected to a pressure transducer was inserted into the right ventricle, and right ventricular systolic pressure (RVSP) was recorded. After the assessment of hemodynamic parameters, all mice were sacrificed by cardiac puncture and exsanguinations. The heart was dissected out and weighed for calculation of the Fulton index (ratio of right ventricular free wall weight over the sum of the septum plus left ventricular free wall weights: RV/LV+S). The left lung was inflated and fixed with formalin buffer for assessments of pulmonary vessel muscularization and of PA-SMC proliferation using Ki67 immunostaining

[2] = system: human pulmonary-artery smooth muscle cells (PA-SMCs); assay: CCL5-stimulated proliferation of human pulmonary-artery smooth muscle cells (MTT assay); type: cell-based; conditions: 48 h with CCL5 and Maraviroc, FIG. 4
Description: The effects of Maraviroc on cell proliferation was investigated in primary cultures of human pulmonary-artery smooth muscle cells (PA-SMCs) collected from lung tissue samples of patients undergoing lung resection surgery. Cell proliferation was assessed by using the tetrazolium salt (MTT) assay (Sigma, Lyon, France) during conditions of stimulation with the CCR5 ligand CCL5. Human PA-SMCs were seeded onto 24-well for 48 h. PA-SMCs were synchronized for 48 h in media without serum prior cell proliferation stimulation in presence of CCL5 or CCL5 and Maraviroc. 48 hours after, MTT (100 μg/mL) was added and incubated for 4 h. The media was removed and crystals formed were dissolved in […] of dimethylsulfoxide (DMSO, Sigma) and the mixture was shaken for a few minutes to achieve complete dissolution. Aliquots (200 μL) of the resulting solutions were transferred to 96-well plates and absorbance was recorded at 520 nm using the Microplate Spectrophotometer System.

wild-type (WT) mice = assay: hypoxic pulmonary hypertension in wild-type mice (chronic hypoxia 9% O2); type: in vivo; conditions: Maraviroc 200 mg/kg/day

## Cc1nnc(C(C)C)n1[C@@H]1C[C@H]2CC[C@@H](C1)N2CC[C@H](NC(=O)C1CCC(F)(F)CC1)c1ccccc1 [Maraviroc, 4,4-difluoro-N-{(1S)-3-[3-(3-isopropyl-5-methyl-4H-1,2,4-triazol-4-yl)-8-azabicyclo[3.2.1]oct-8-yl]-1-phenylpropyl}cyclohexanecarboxamide]
[1]; FIG. 3A
  Right ventricular systolic pressure (RVSP): reduction
[1]; FIG. 3B
  Fulton index: reduction
[1]; FIG. 3C
  % of muscularized vessels: reduction
[1]; FIG. 3D
  proliferative cells detected by ki67 immunostaining: reduction
[2]
  Proliferation of human pulmonary artery smooth muscle cells stimulated by the CCR5 ligand CCL5: significantly reduced
wild-type (WT) mice; FIG. 3A
  Right ventricular systolic pressure (RVSP): not in WT mice
wild-type (WT) mice; FIG. 3D
  proliferative cells detected by ki67 immunostaining: not in WT mice
